{
  "source": "paper PMC5392419",
  "about": "(Pharmacological research, 2017)",
  "key": {"[1]": {"target": "T1, ATP-binding cassette subfamily G member 2 (ABCG2) (Homo sapiens, UniProt Q9UNQ0)", "T1 sequence (Q9UNQ0 1-655)": "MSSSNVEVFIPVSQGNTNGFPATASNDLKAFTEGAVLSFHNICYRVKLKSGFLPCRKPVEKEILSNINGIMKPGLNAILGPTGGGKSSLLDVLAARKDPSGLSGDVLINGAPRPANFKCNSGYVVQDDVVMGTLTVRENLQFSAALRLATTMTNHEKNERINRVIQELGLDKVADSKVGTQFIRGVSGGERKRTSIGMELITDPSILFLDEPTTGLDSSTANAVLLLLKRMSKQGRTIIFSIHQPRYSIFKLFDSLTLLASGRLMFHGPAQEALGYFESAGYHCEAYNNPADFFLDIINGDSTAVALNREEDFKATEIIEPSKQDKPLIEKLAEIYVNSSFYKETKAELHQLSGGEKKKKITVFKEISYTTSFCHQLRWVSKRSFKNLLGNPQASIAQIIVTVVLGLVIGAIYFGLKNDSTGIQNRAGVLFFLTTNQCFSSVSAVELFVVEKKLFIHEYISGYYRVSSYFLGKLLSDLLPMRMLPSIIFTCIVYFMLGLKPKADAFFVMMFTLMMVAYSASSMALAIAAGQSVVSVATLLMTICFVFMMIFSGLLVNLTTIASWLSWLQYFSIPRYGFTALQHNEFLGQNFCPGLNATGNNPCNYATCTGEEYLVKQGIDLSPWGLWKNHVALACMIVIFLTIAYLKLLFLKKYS", "experiment": "biochemical"}, "[2]": {"target": "T1, ATP-binding cassette subfamily G member 2 (ABCG2)", "experiment": "[3H]-mitoxantrone accumulation and efflux assay in ABCG2-overexpressing cells", "type": "cell-based"}},
  "data": [
    {"smiles": "COc1cc2nccc(Oc3ccc(NC(=O)C4(C(=O)Nc5ccc(F)cc5)CC4)cc3)c2cc1OC", "note": "[cabozantinib]", "values": [
      {"measurement": "EC50", "setting": "[1]", "result": 734, "unit": "nM"}
    ]},
    {"smiles": "COc1ccc2c3c([nH]c2c1)[C@H](C=C(C)C)N1C(=O)[C@@H]2CCCN2C(=O)[C@@H]1C3", "note": "[Fumitremorgin C]", "values": [
      {"measurement": "[3H]-mitoxantrone accumulation and efflux assay in ABCG2-overexpressing cells (1)", "setting": "[2]", "result": "efficacy of cabozantinib on increasing intracellular accumulation of [^3H]-MX in resistant cell line is comparable to that of FTC"}
    ]}
  ]
}
